For assay [1], the system named is black bean aphids (Aphis fabae). Put plainly: Aphis fabae root-systemic test on field bean. Type of assay: in vivo. To be noted: read-out: mortality among the aphids, by root-systemic action.
Assay [2] has the same test system. Put plainly: Aphis fabae dip test on field bean (plants and aphids dipped in preparation). The class given is in vivo. To be noted: read-out: mortality among the aphids.

The source of these data is patent publication US20020032328A1, “Heterocyclic acylsulfimides, processes for their preparation, compositions comprising them and their use as pesticides” (priority 2000, published 2002).

In general, mortality refers to the percentage killed. Regarding `C/S(=N\C(=O)c1cnccc1C(F)(F)F)c1ccsc1` (stereo not shown) [Example 66], in assay [1], the mortality at 30 ppm was in the range of 90 to 100%. Further, the mortality at 300 ppm in assay [2] was 90 to 100%.

On to `CS(=O)(=NC(=O)c1cnccc1C(F)(F)F)c1ccc(Oc2cccc(F)c2C#N)cc1` (stereo not shown) [Example 718], for which the mortality at 30 ppm in assay [1] is 90 to 100%. The mortality at 300 ppm in assay [2] lay in the range of 90 to 100%.
